Measurements published in ChEMBL document CHEMBL1649164, “First organisms with acquired metallo-beta-lactamases (IMP-13, IMP-22, and VIM-2) reported in Austria” (2009).
In brackets after ≈: the same amount, converted by molar mass.

What was measured:
Assay type in all cases: functional
Pseudomonas aeruginosa [1] = assay: Antimicrobial activity against Pseudomonas aeruginosa isolate 22843 expressing VIM-2 beta lactamase gene by Etest
Pseudomonas aeruginosa [2] = assay: Antimicrobial activity against Pseudomonas aeruginosa isolate 26285 expressing IMP-13 beta lactamase gene by Etest
Pseudomonas aeruginosa [3] = assay: Antimicrobial activity against Pseudomonas aeruginosa isolate 27135 expressing VIM-2 beta lactamase gene by Etest
Pseudomonas aeruginosa [4] = assay: Antimicrobial activity against Pseudomonas aeruginosa isolate M136074 expressing IMP-22 beta lactamase gene by Etest
Pseudomonas aeruginosa [5] = assay: Antimicrobial activity against Pseudomonas aeruginosa isolate 22843 expressing VIM-2 beta lactamase gene by Etest in presence of Tazobactam
Pseudomonas aeruginosa [6] = assay: Antimicrobial activity against Pseudomonas aeruginosa isolate 27135 expressing VIM-2 beta lactamase gene by Etest in presence of Tazobactam
Pseudomonas aeruginosa [7] = assay: Antimicrobial activity against Pseudomonas aeruginosa isolate 26285 expressing IMP-13 beta lactamase gene by Etest in presence of Tazobactam
Pseudomonas aeruginosa [8] = assay: Antimicrobial activity against Pseudomonas aeruginosa isolate M136074 expressing IMP-22 beta lactamase gene by Etest in presence of Tazobactam
Pseudomonas aeruginosa [9] = assay: Antimicrobial activity against Pseudomonas aeruginosa isolate 27135 expressing VIM-2 beta lactamase gene by Etest in presence of clavulanate
Pseudomonas aeruginosa [10] = assay: Antimicrobial activity against Pseudomonas aeruginosa isolate M136074 expressing IMP-22 beta lactamase gene by Etest in presence of clavulanate
Pseudomonas aeruginosa [11] = assay: Antimicrobial activity against Pseudomonas aeruginosa isolate 26285 expressing IMP-13 beta lactamase gene by Etest in presence of clavulanate
Pseudomonas aeruginosa [12] = assay: Antimicrobial activity against Pseudomonas aeruginosa isolate 22843 expressing VIM-2 beta lactamase gene by Etest in presence of clavulanate

Molecule COLISTIN has an MIC (Pseudomonas aeruginosa [1]) of 4 µg/mL, an MIC (Pseudomonas aeruginosa [2]) of 6 µg/mL and an MIC (Pseudomonas aeruginosa [3]) of 4 µg/mL. For the same molecule, the MIC (Pseudomonas aeruginosa [4]) was 6 µg/mL.
For `NCC[C@H](O)C(=O)N[C@@H]1C[C@H](N)[C@@H](O[C@H]2O[C@H](CN)[C@@H](O)[C@H](O)[C@H]2O)[C@H](O)[C@H]1O[C@H]1O[C@H](CO)[C@@H](O)[C@H](N)[C@H]1O` [AMIKACIN], the MIC (Pseudomonas aeruginosa [1]) was > 256 µg/mL, the MIC (Pseudomonas aeruginosa [2]) was 24 µg/mL (≈ 41 µM) and the MIC (Pseudomonas aeruginosa [3]) was > 256 µg/mL. The MIC (Pseudomonas aeruginosa [4]) was 6 µg/mL (≈ 10.2 µM).
`CC(C)(O/N=C(\C(=O)N[C@@H]1C(=O)N2C(C(=O)[O-])=C(C[n+]3ccccc3)CS[C@H]12)c1csc(N)n1)C(=O)O` [CEFTAZIDIME] was tested, and the MIC (Pseudomonas aeruginosa [1]) was 12 µg/mL (≈ 22 µM), the MIC (Pseudomonas aeruginosa [2]) was > 256 µg/mL and the MIC (Pseudomonas aeruginosa [3]) was 12 µg/mL (≈ 22 µM). For the same molecule, the MIC (Pseudomonas aeruginosa [4]) was > 256 µg/mL.
In the case of `NC[C@H]1O[C@H](O[C@H]2[C@H](O)[C@@H](O[C@H]3O[C@H](CO)[C@@H](O)[C@H](N)[C@H]3O)[C@H](N)C[C@@H]2N)[C@H](N)C[C@@H]1O` [TOBRAMYCIN], the MIC (Pseudomonas aeruginosa [1]) is reported as > 256 µg/mL, the MIC (Pseudomonas aeruginosa [2]) is reported as 128 µg/mL (≈ 274 µM) and the MIC (Pseudomonas aeruginosa [3]) is reported as > 256 µg/mL. For the same molecule, the MIC (Pseudomonas aeruginosa [4]) was 2 µg/mL (≈ 4.28 µM).
`C[C@H]1[C@H](NC(=O)/C(=N\OC(C)(C)C(=O)O)c2csc(N)n2)C(=O)N1S(=O)(=O)O` [AZTREONAM] showed an MIC (Pseudomonas aeruginosa [1]) of 12 µg/mL (≈ 27.6 µM), an MIC (Pseudomonas aeruginosa [2]) of 12 µg/mL (≈ 27.6 µM) and an MIC (Pseudomonas aeruginosa [3]) of 12 µg/mL (≈ 27.6 µM). For the same molecule, the MIC (Pseudomonas aeruginosa [4]) was 4 µg/mL (≈ 9.19 µM).
Molecule `CCN1CCN(C(=O)N[C@@H](C(=O)N[C@@H]2C(=O)N3[C@@H]2SC(C)(C)[C@@H]3C(=O)O)c2ccccc2)C(=O)C1=O` [PIPERACILLIN] has an MIC (Pseudomonas aeruginosa [1]) of 32 µg/mL (≈ 61.8 µM), an MIC (Pseudomonas aeruginosa [2]) of 16 µg/mL (≈ 30.9 µM) and an MIC (Pseudomonas aeruginosa [5]) of 32 µg/mL. It also gave an MIC (Pseudomonas aeruginosa [6]) of 32 µg/mL, an MIC (Pseudomonas aeruginosa [3]) of 32 µg/mL (≈ 61.8 µM) and an MIC (Pseudomonas aeruginosa [7]) of 16 µg/mL. The MIC (Pseudomonas aeruginosa [8]) was 8 µg/mL and the MIC (Pseudomonas aeruginosa [4]) was 12 µg/mL (≈ 23.2 µM).
For `C[C@@H](O)[C@H]1C(=O)N2C(C(=O)O)=C(SCCNC=N)C[C@H]12` [IMIPENEM ANHYDROUS], the MIC (Pseudomonas aeruginosa [1]) was > 32 µg/mL, the MIC (Pseudomonas aeruginosa [2]) was > 32 µg/mL and the MIC (Pseudomonas aeruginosa [3]) was > 32 µg/mL. It also gave an MIC (Pseudomonas aeruginosa [4]) of 12 µg/mL (≈ 40.1 µM).
`C[C@@H](O)[C@H]1C(=O)N2C(C(=O)O)=C(S[C@@H]3CN[C@H](C(=O)N(C)C)C3)[C@H](C)[C@H]12` [MEROPENEM] was tested, and the MIC (Pseudomonas aeruginosa [1]) was > 32 µg/mL, the MIC (Pseudomonas aeruginosa [2]) was > 32 µg/mL and the MIC (Pseudomonas aeruginosa [3]) was > 32 µg/mL. It also gave an MIC (Pseudomonas aeruginosa [4]) of 24 µg/mL (≈ 62.6 µM).
In the case of `CC1(C)S[C@@H]2[C@H](NC(=O)[C@H](C(=O)O)c3ccsc3)C(=O)N2[C@H]1C(=O)O` [TICARCILLIN], the MIC (Pseudomonas aeruginosa [1]) is reported as > 256 µg/mL, the MIC (Pseudomonas aeruginosa [2]) is reported as > 256 µg/mL and the MIC (Pseudomonas aeruginosa [9]) is reported as > 256 µg/mL. For the same molecule, the MIC (Pseudomonas aeruginosa [3]) was > 256 µg/mL, the MIC (Pseudomonas aeruginosa [10]) was > 256 µg/mL and the MIC (Pseudomonas aeruginosa [11]) was > 256 µg/mL. The MIC (Pseudomonas aeruginosa [4]) was > 256 µg/mL and the MIC (Pseudomonas aeruginosa [12]) was > 256 µg/mL.
For `CO/N=C(\C(=O)N[C@@H]1C(=O)N2C(C(=O)O)=C(COC(C)=O)CS[C@H]12)c1csc(N)n1` [CEFOTAXIME], the MIC (Pseudomonas aeruginosa [1]) was > 256 µg/mL, the MIC (Pseudomonas aeruginosa [2]) was > 256 µg/mL and the MIC (Pseudomonas aeruginosa [3]) was > 256 µg/mL. For the same molecule, the MIC (Pseudomonas aeruginosa [4]) was > 256 µg/mL.
Molecule `CO/N=C(\C(=O)N[C@@H]1C(=O)N2C(C(=O)[O-])=C(C[N+]3(C)CCCC3)CS[C@H]12)c1csc(N)n1` [CEFEPIME] has an MIC (Pseudomonas aeruginosa [2]) of 128 µg/mL (≈ 266 µM), an MIC (Pseudomonas aeruginosa [3]) of 24 µg/mL (≈ 49.9 µM) and an MIC (Pseudomonas aeruginosa [4]) of 128 µg/mL (≈ 266 µM).
`O=C(O)c1cn(C2CC2)c2cc(N3CCNCC3)c(F)cc2c1=O` [CIPROFLOXACIN] was tested, and the MIC (Pseudomonas aeruginosa [1]) was > 32 µg/mL, the MIC (Pseudomonas aeruginosa [2]) was > 32 µg/mL and the MIC (Pseudomonas aeruginosa [3]) was > 32 µg/mL. For the same molecule, the MIC (Pseudomonas aeruginosa [4]) was 32 µg/mL (≈ 96.6 µM).
For GENTAMICIN, the MIC (Pseudomonas aeruginosa [1]) was 8 µg/mL, the MIC (Pseudomonas aeruginosa [2]) was > 256 µg/mL and the MIC (Pseudomonas aeruginosa [3]) was 8 µg/mL. For the same molecule, the MIC (Pseudomonas aeruginosa [4]) was 4 µg/mL.
